The source of these data is a melting point compilation (Tetko et al.; mined from patent text by program, amines drawn as free bases though some values may be those of a salt).

Regarding `CCN(c1nc(C)cc(C(=O)N2CCOCC2)n1)c1ccc(C(C)C)cc1Br`, the melting point came out at 145 °C.
In turn, `CN(Cc1ccc(NC(=O)C2=Cc3cc(-c4ccc(F)cc4)ccc3S(=O)(=O)CC2)cc1)C1CCOCC1` yielded a melting point of 219 to 221 °C.
Consider `COCCOc1cc(Oc2ccc(C(F)(F)F)cn2)ccc1CCCOc1cc(CCC(=O)O)n(C)n1`, for which the melting point worked out at 110 °C.
Regarding `CC(C)C1COCc2nc3c(N)nc4ccc(O)cc4c3n21` (centres undefined), the melting point is 208 to 210 °C.
Compound `O=C1C(=O)c2ccccc2C2=C1SCC1(CCN(CC(O)Cc3ccc(Cl)cc3)CC1)O2` (centres undefined) returned a melting point of 195 to 196 °C.
For the compound `CC1(C)C(=O)Nc2ccc(-c3cc(F)cc(Cl)c3)cc21`, the melting point lay in the range of 206 to 207 °C.
As for `C=CCNc1nc(NC(=O)NCCCC)c2scc(C)c2n1`, the figure is 141 °C; as for `CC1CC(C)(C)Nc2ccc3c(c21)C(c1ccc(Cl)cc1)Oc1ccccc1-3` (centres undefined), 158 to 159 °C; as for `CCCOC(=O)Nc1ccc(OCC2CC2(Cl)Cl)c(Cl)c1` (centres undefined), 57 to 59 °C.
As for `CS(=O)(=O)c1ccc(-c2cnn(-c3ccc(Cl)s3)c(=O)c2-c2ccc(Cl)cc2)cc1`, the figure is 249 to 251 °C.
For the compound `Nc1cnc(-c2ccc(OCc3ccccc3)c(C34CC5CC(CC(C5)C3)C4)c2)nc1`, the melting point is 216 to 219 °C.
As for `CC1(C)CC(=O)C(C(=O)c2cccc3nnsc23)C(=O)C1`, the figure is 168 to 170 °C; as for `COC(=O)C(=O)c1ccc(NC(=O)COc2ccc3ccccc3c2)cc1`, 175 to 176 °C.
The same measure for `O=C(Cc1ccccc1)c1ccc(OCc2ccccc2)cc1O`: 106 to 108 °C; for `CC(C)c1nc(-c2ccccn2)ncc1-c1ccc(Cl)cc1`: 145 °C.
As to `Cc1nnsc1NC(=O)Nc1ccc(-n2nc(C(F)(F)F)cc2C2CC2)cc1`, the melting point lay within 124 to 128 °C.
The same measure for `O=C1c2cc(OCc3ccccc3Cl)ccc2CCN1Cc1cccnc1`: 88.5 to 90 °C; for `CCCCCS(=O)(=O)NC(=O)OCc1ccc(OC(C)C)cc1Oc1ncc(C(F)(F)F)cc1Cl`: 70 to 73 °C.
Consider `COc1ccccc1-n1c(=O)[nH]c2c(OC)cccc21`, for which the melting point fell in the range of 246 to 247 °C.
As for `O=C(O)c1ccc(OCCCO/N=C/c2cn(Cc3ccccc3)c3ccccc23)cc1O`, the figure is 182 to 183 °C; as for `CCc1ccc2c(C=O)c3ccccc3c(C=O)c2c1`, 99 to 100 °C; as for `CC(=O)Oc1cc(Oc2ccccc2)c(OC(C)=O)c2ccccc12`, 137 to 138 °C.
`COc1ccc(/C(=C/C=C/C(=O)O)C(C)C)cc1` registered a melting point of 132 to 133 °C.
The same measure for `O=c1oc2cc(O)c(O)cc2c(O)c1-c1coc2c1c(=O)oc1cc(O)c(O)cc12`: above 300 °C; for `COc1ccc(-c2nc(SCC(F)(F)F)[nH]c2-c2ccc(OC)cc2)cc1`: 119 to 120 °C; for `CCCCCCCCCCc1csc2c1S(=O)(=O)c1c(CCCCCCCCCC)csc1-2`: 58.7 to 60.3 °C.
`O=c1[nH]c2cc(Br)c(F)c([N+](=O)[O-])c2[nH]c1=O` showed a melting point of 316 to 321 °C.
Compound `COC(=O)C1=C(C)NC(c2csc(C)n2)=NC1c1ccc(F)cc1Cl` (centres undefined) displayed a melting point of 128 to 130 °C.
On to `COC(=O)CCc1cc2cc(Cl)ccc2n1S(=O)(=O)c1ccc(C(C)C)cc1`, for which the melting point is 90 to 94 °C.
As for `CCCN1CCCN(c2ccccc2)c2cc(Cl)ccc21`, the figure is 192 to 194 °C; as for `Oc1cc(I)c(I)cc1O`, 116 °C.
In turn, `C1=NNC(c2ccccc2)c2ccccc21` (centres undefined) showed a melting point of 79 °C.
As for `N#CCCNC(=O)c1cncc(-c2cccc3nn(Cc4cccc(C(F)(F)F)c4)cc23)c1`, the figure is 192 to 193 °C; as for `CCNC(=O)Nc1ccc(C(O)(C(F)(F)F)C(F)(F)F)cc1Br`, 125 to 127 °C; as for `CN1C(=O)N(C)P(C)(=S)C1=O` (centres undefined), 95 °C.
`CCN(CC)CCn1nc2c3c(c(CN)ccc31)Sc1ccc(OC)cc1-2` had a melting point of 74 to 76 °C.
Take `CCc1cn(C2CC(O)C(CN=[N+]=[N-])O2)c(=O)[nH]c1=O` (centres undefined): the melting point lay within 174 to 177 °C.
With `CCCOC(Nc1ccccc1)(OCCC)c1ccnc(C(=O)c2ccc(Cl)cc2)c1`, the melting point was 140 to 141 °C.
The same measure for `CCOC(=O)C(=CNC1=NN(c2ccc(Cl)cc2)CC1)C(=O)OCC`: 159 to 162 °C.
Compound `N#Cc1cc(Br)cc2ccc(O)c(Cl)c12` came in with a melting point of 148 to 150 °C.
As for `Cc1ccc(-c2ncc(N3CCC(O)CC3)nc2-c2ccc(C)cc2)cc1`, the melting point was in the range of 176 to 178 °C.
The same measure for `O=C(O)c1ccc(N2C(=O)c3ccc(C(=O)O)cc3C2=O)cc1`: 377 to 379 °C; for `O=C(OCc1cc(F)nc(F)c1)c1ccccc1`: 83 to 84 °C; for `COc1ccc(-c2[nH]nc3c2C(=O)c2c(NC(=O)Cc4ccc(NC(=O)CN)cc4)cccc2-3)cc1`: 228 °C.
As for `CCSC(NC(C)=O)C(=O)NCc1ccccc1` (centres undefined), the figure is 146 to 148 °C; as for `CCCCCCCCCCC(=O)Nc1cc(F)cc2c1OCCC21SC(=O)NC1=O` (centres undefined), 69 to 71 °C.
Consider `O=C(c1ccc(-c2cnc3c(c2)N(Cc2cc(Cl)ccc2Cl)C(=O)CN3)cc1)N1CCC(N2CCCC2)CC1`, for which the melting point is above 200 °C.
The same measure for `CCCn1nc2c(N)nc3ccccc3c2c1CC1(O)CCOCC1`: 209 to 211 °C; for `COC(=O)c1[nH]c(C)c(C)c1OCCCCCl`: 74 to 76 °C.
`CCCOC(=O)C1=C(C)NC(C#N)=C(C(=O)OC)C1c1ccccc1C#N` (centres undefined) registered a melting point of 150 to 152 °C.
The same measure for `CC(=O)Oc1c(-c2ccccc2)sc2nc(C(C)(C)C)ccc12`: 128 to 129 °C.
The same measure for `COC(=O)c1cc(-n2c(=O)c3c(n(C)c2=O)CCC3)c(F)cc1Cl`: 138 to 141 °C.
`C[C@@H](CO)NS(=O)(=O)c1ccccc1[N+](=O)[O-]` gave a melting point of 82 to 83 °C.
As for `Nc1cccc(-c2ccc(-c3ccc(CCN4CC5C(N)C5C4)cc3)cc2)n1` (centres undefined), the figure is 205 °C; as for `CC(C(=O)Cl)c1ccc(C(=O)c2cccs2)cc1` (centres undefined), 149 °C.
In turn, `CC(O)(CCC#N)c1ccc(Oc2ccc(Cl)cc2)cc1` (centres undefined) registered a melting point of 68 to 70 °C.
The same measure for `CC(C)(C)c1cc(Oc2ccc(N)c(O)c2)ccc1Oc1ccc(N)c(O)c1`: 110 to 113 °C; for `O=C(Nc1ccc(-c2cnc(-c3ccc(NC(=O)c4c(F)c(F)c(F)c(F)c4F)cc3)[nH]2)cc1)c1cccnc1`: 265 to 266 °C; for `Cc1nn(-c2c(Cl)cc(C(F)(F)F)cc2Cl)nc1-c1nc(C#N)c(C#N)[nH]1`: 228 to 229 °C.
The same measure for `Cc1cn2c(n1)CN=C(c1ccccc1Cl)c1cc(Cl)ccc1-2`: 170 °C.
As for `COC(=O)CCNC(=O)C(=Cc1ccccc1)CSC(C)=O`, the figure is 54 °C; as for `CCCCCCC/C=C/C(=O)NCC(C)C`, 42 to 45 °C; as for `CC#CCOc1ccc(S(=O)(=O)N(C)C(CCCSc2ccc(Cl)cc2)C(=O)OC)cc1` (centres undefined), 88 to 89 °C.
Compound `COC(=O)c1nc2cccc(Br)c2c(O)c1C(=O)OC` returned a melting point of 124 to 126 °C.
Consider `CC(C)(C)OC(=O)Nc1ccc(C#Cc2ccccc2Cl)cc1N`, for which the melting point was in the range of 120 to 122 °C.
In turn, `Cc1cc2c(cc1C(F)(F)F)N(Cc1cccc(C(=O)O)c1)CCC[C@@H]2N(Cc1cc(C(F)(F)F)cc(C(F)(F)F)c1)c1nnn(C)n1` had a melting point of 83 to 86 °C.
As for `O=c1[nH]c2cc([N+](=O)[O-])sc2[nH]c1=O`, the figure is above 300 °C; as for `O=NCNC1=Nc2ccc(Br)cc2C(c2ccccn2)=NC1`, 102 to 106 °C.
As for `COC(=O)[C@@H]1C[C@H](OC(=O)c2ccccc2)CN1C(=O)OC(C)(C)C`, the figure is 89 to 90 °C; as for `CCCCCCCOC(=O)CON=c1c2nccc3cccc(c32)n2cccc12`, 98 °C; as for `COc1cc(C(=O)O)ccc1NC(=O)OC(C)(C)C`, 176 to 178 °C.
As for `COC(=O)c1cc2ccc(OC)cc2c2c1C=CC(c1ccc(OC)cc1)(c1ccc(OC)cc1)O2`, the figure is 162 to 164 °C; as for `Cc1cc(Cl)nnc1NS(=O)(=O)c1cccc2c(N(C)C)cccc12`, 182 to 186 °C; as for `CCOc1nc2ccnn2c2ncccc12`, 162 °C.
In turn, `CSc1cc(-c2ccc(C(F)(F)F)cc2)ccc1C#N` came in with a melting point of 128 to 129 °C.
`Nc1nccc2cc(CNC(=O)C3CCCN3)ccc12` (centres undefined): the melting point lay within 140 to 142 °C.
`CC(C)CC(CS)C(N)=O` (centres undefined) yielded a melting point of 147 to 154 °C.
As for `C=C(C)C(=O)Nc1ccc(NC(=O)Nc2ccc(C#N)cc2)c(O)c1`, the figure is 247 to 249 °C; as for `Nc1c(Cl)cc(C(O)CNCCCCCCOCCCc2ccc(C(=O)O)cc2)cc1Cl` (centres undefined), 190 to 191 °C; as for `O=[N+]([O-])c1ccc(C=Cc2nccn2Cc2ccccn2)o1`, 141 to 142 °C.
The same measure for `COc1ccccc1-c1cnc(-c2ccccc2)[nH]c1=O`: 245 to 247 °C; for `CC(C)NC(=O)OCC(=O)c1cccc(Br)c1`: 125 to 129 °C; for `CCC(=CC(CNC(=O)c1nc[nH]c1C)=NO)C(C)[N+](=O)[O-]` (centres undefined): 125 to 127 °C.
As for `Cc1nn2c(-c3cccc(NC(=O)OC(C)C)c3)ccnc2c1C(=O)c1cccs1`, the figure is 186 to 188 °C; as for `O=c1c2c(oc3ccccc13)O2`, 66 to 67 °C.
Compound `Cc1ccc(C(=O)N2CCC(CCN3C(=O)CCc4c(CC5SC(=O)NC5=O)cccc43)CC2)cc1` (centres undefined) returned a melting point of 60 to 65 °C.
As for `COC(=O)c1ccc(-c2ccc(-c3ccccc3)c(-c3ccc4c(c3)C(C)(C)CCC4(C)C)c2)cn1`, the figure is 160 to 162 °C.
As for `CCCC1CC(=O)C(C(=O)NS(=O)(=O)c2ccc(C)cc2)C(=O)C1` (centres undefined), the figure is 132 to 134 °C; as for `O=C(O)[C@H](CCc1ccccc1)NS(=O)(=O)c1ccc2c(c1)Cc1ccccc1-2`, 128 to 131 °C.

As a reminder, the melting point is the temperature, or range, at which the solid turns liquid.
